{
  "source": "patent US9322066B2",
  "about": "“Predictors for cancer treatment” (priority 2011, dated 2016)",
  "key": {"[1]": {"system": "relapsed or refractory, rituximab-naive or -sensitive follicular B-cell NHL", "assay": "Overall survival (OS), Vc-R vs rituximab study, by biomarker", "type": "in vivo, human", "set-up": "OS Median: unit not given here", "excerpt": "(§1) Non-Hodgkin lymphoma (NHL) encompasses several unique malignant lymphoid disease entities that vary in clinical behavior, morphologic appearance, immunologic, and molecular phenotype. […] A randomized, open-label, active-controlled, multicenter, multinational, prospective study to compare the efficacy and safety of the combination of bortezomib and rituximab (Vc-R) to single-agent rituximab in subjects who have relapsed or refractory, rituximab-naive or -sensitive follicular B-cell NHL was performed.\n(§2) Subjects were centrally randomized to Treatment Groups A (Vc-R) or B (rituximab) in a 1:1 ratio taking into account the following stratification factors: • Follicular Lymphoma International Prognostic Index (FLIPI) score (low [0 or 1 factor], intermediate [2 factors], high [≧3 factors]); • Prior rituximab therapy (yes, no); • Time since last dose of anti-lymphoma therapy (≦1 year, >1 year); • Region (United States/Canada, European Union, Rest of World).\nThe following clinical endpoints were included in the analysis within each treatment group and an overall comparison was made with the biomarker-related endpoints: Progression-free survival, defined as the interval between the date of randomization and the date of progressive disease (PD) or death, whichever is first reported in the ITT population; overall survival; overall response rate (complete response [CR]+CR unconfirmed [CRu]+partial response [PR]); overall CR rate (CR+CRu); duration of response; time to next anti-lymphoma therapy; and treatment free interval.\nOverall Survival was measured from the date of randomization to the date of the subject's death. If the subject was alive or the vital status was unknown, it was censored at the date that the subject was last known to be alive. Similar to PFS and TTP, the Cox proportional hazard model was used to evaluate the association between biomarker endpoints and OS. Kaplan-Meier survival curves were presented. Analyses were done for the population overall and by treatment group, and each of these analyses was stratified by the covariates used for PFS."}, "[2]": {"system": "relapsed or refractory, rituximab-naive or -sensitive follicular B-cell NHL", "assay": "Overall response rate (CR+CRu+PR), Vc-R vs rituximab study, by biomarker", "type": "in vivo, human", "conditions": "Biomarker positive (PSMB1 P11A heterozygote and CD68 Low)", "excerpt": "as §1\nas §2, with “World). […]” for “World).”\nComparison of the response rates between the treatment groups was conducted using the Fishers Exact Test. Duration of response, time to response, and time to clinical relapse were analyzed descriptively, where appropriate, and the biomarker subset was compared (if appropriate, determined as per the initial analysis) to the overall clinical cohort, by treatment group and overall. […]"}, "[3]": {"conditions": "20S % POSITIVE CYTOPLASMIC SIGNAL: 95-100, 2 Prior Lines of Therapy"}, "[4]": {"conditions": "20S % POSITIVE CYTOPLASMIC SIGNAL: 95-100, Ann Arbor Stage IV"}, "[5]": {"conditions": "BCL2/P59L: MD, Ann Arbor Stage IV"}, "[6]": {"conditions": "BCL2/P59L: MD, High FLIPI Score"}, "[7]": {"conditions": "BCL2/P59L: MD, High Tumor Burden"}, "[8]": {"conditions": "BCL2/P59L: MD, No Prior Rituximab Therapy"}, "[9]": {"conditions": "CD68 OVERALL POSITIVE: 26-50, 2 Prior Lines of Therapy"}, "[10]": {"conditions": "CD68 POSITIVE PERIFOLLICULAR: 26-50, 2 Prior Lines of Therapy"}, "[11]": {"conditions": "NOTCH/P2513L: MD, >65 years old"}, "[12]": {"conditions": "PSMB5/R24C: C/T, Ann Arbor Stage IV"}, "[13]": {"conditions": "PSMB5/R24C: C/T, Intermediate FLIPI Score"}},
  "data": [
    {"substance": "rituximab", "values": [
      {"measurement": "OS Evt/N", "setting": "[1]; 20S % POSITIVE CYTOPLASMIC SIGNAL: 0-20, 2 Prior Lines of Therapy", "value": "1/10"},
      {"measurement": "OS Evt/N", "setting": "[1]; 20S % POSITIVE CYTOPLASMIC SIGNAL: 0-20, Ann Arbor Stage IV", "value": "1/15"},
      {"measurement": "OS Evt/N", "setting": "[1]; [3]", "value": "14/35"},
      {"measurement": "OS Median", "setting": "[1]; [3]", "value": 1205},
      {"measurement": "OS Evt/N", "setting": "[1]; [4]", "value": "25/56"},
      {"measurement": "OS Median", "setting": "[1]; [4]", "value": 1205},
      {"measurement": "Median OS (Vc − R vs R)", "setting": "[1]; 20S INTENSITY CYTOPLASMIC SIGNAL >=3+ + P65 % POSITIVE CYTOPLASMIC SIGNAL <=90%, Selected (biomarker positive)", "value": 717, "unit": "days"},
      {"measurement": "OS Evt/N", "setting": "[1]; 20S INTENSITY CYTOPLASMIC SIGNAL: ≦2+, Intermediate FLIPI Score", "value": "2/48"},
      {"measurement": "OS Evt/N", "setting": "[1]; 20S INTENSITY CYTOPLASMIC SIGNAL: ≧3+, Male", "value": "10/27"},
      {"measurement": "Median OS (Vc − R vs R)", "setting": "[1]; AGEGRP >65 + CD68 POSITIVE FOLLICULAR >50, Selected (biomarker positive)", "value": 971, "unit": "days"},
      {"measurement": "OS Evt/N", "setting": "[1]; [5]", "value": "5/5"},
      {"measurement": "OS Median", "setting": "[1]; [5]", "value": 174},
      {"measurement": "OS Evt/N", "setting": "[1]; BCL2/P59L: MD, Female", "value": "6/8"},
      {"measurement": "OS Median", "setting": "[1]; BCL2/P59L: MD, Female", "value": 536},
      {"measurement": "OS Evt/N", "setting": "[1]; [6]", "value": "6/6"},
      {"measurement": "OS Median", "setting": "[1]; [6]", "value": 282},
      {"measurement": "OS Evt/N", "setting": "[1]; [7]", "value": "5/6"},
      {"measurement": "OS Median", "setting": "[1]; [7]", "value": 282},
      {"measurement": "OS Evt/N", "setting": "[1]; [8]", "value": "5/5"},
      {"measurement": "OS Median", "setting": "[1]; [8]", "value": 174},
      {"measurement": "OS Evt/N", "setting": "[1]; BCL2/P59L: MD, Rest of World", "value": "4/5"},
      {"measurement": "OS Median", "setting": "[1]; BCL2/P59L: MD, Rest of World", "value": 174},
      {"measurement": "OS Evt/N", "setting": "[1]; BCL2/R106H: MD, Male", "value": "8/10"},
      {"measurement": "OS Median", "setting": "[1]; BCL2/R106H: MD, Male", "value": 318},
      {"measurement": "OS Evt/N", "setting": "[1]; [9]", "value": "13/26"},
      {"measurement": "OS Median", "setting": "[1]; [9]", "value": 1205},
      {"measurement": "OS Evt/N", "setting": "[1]; CD68 OVERALL POSITIVE: 26-50, No High Tumor Burden", "value": "14/54"},
      {"measurement": "OS Evt/N", "setting": "[1]; CD68 OVERALL POSITIVE: 51-75, Ann Arbor Stage III", "value": "2/21"},
      {"measurement": "OS Evt/N", "setting": "[1]; CD68 POSITIVE FOLLICULAR: 0-25, No Prior Rituximab Therapy", "value": "11/36"},
      {"measurement": "OS Evt/N", "setting": "[1]; CD68 POSITIVE FOLLICULAR: 0-25, ≦65 years old", "value": "14/46"},
      {"measurement": "OS Evt/N", "setting": "[1]; [10]", "value": "7/16"},
      {"measurement": "OS Median", "setting": "[1]; [10]", "value": 1205},
      {"measurement": "OS Evt/N", "setting": "[1]; CD68 POSITIVE PERIFOLLICULAR: 26-50, Male", "value": "11/30"},
      {"measurement": "OS Evt/N", "setting": "[1]; CD68 POSITIVE PERIFOLLICULAR: 26-50, No High Tumor Burden", "value": "10/41"},
      {"measurement": "Median OS (Vc − R vs R)", "setting": "[1]; FLIPI High + CD68 POSITIVE FOLLICULAR 0-50, Selected", "value": 1263, "unit": "days"},
      {"measurement": "Median OS (Vc − R vs R)", "setting": "[1]; FLIPI High + P27 % NUCLEI POSITIVE 0-70, Selected", "value": 1111, "unit": "days"},
      {"measurement": "Median OS (Vc − R vs R)", "setting": "[1]; FLIPI High + P27 SIGNAL INTENSITY >=2+, Selected", "value": 1263, "unit": "days"},
      {"measurement": "OS Evt/N", "setting": "[1]; [11]", "value": "8/13"},
      {"measurement": "OS Median", "setting": "[1]; [11]", "value": 795},
      {"measurement": "OS Evt/N", "setting": "[1]; NOTCH/P2513L: MD, No High Tumor Burden", "value": "7/26"},
      {"measurement": "OS Evt/N", "setting": "[1]; NOTCH/Q2460X: MD, Male", "value": "3/3"},
      {"measurement": "OS Median", "setting": "[1]; NOTCH/Q2460X: MD, Male", "value": 595},
      {"measurement": "OS Evt/N", "setting": "[1]; NOTCH/X28DEL: MND, 2 Prior Lines of Therapy", "value": "20/56"},
      {"measurement": "OS Evt/N", "setting": "[1]; NOTCH/X28DEL: MND, Male", "value": "26/75"},
      {"measurement": "OS Evt/N", "setting": "[1]; P27 % NUCLEI POSITIVE: 0-20, No High Tumor Burden", "value": "3/29"},
      {"measurement": "OS Evt/N", "setting": "[1]; P27 % NUCLEI POSITIVE: 60-70, Male", "value": "4/12"},
      {"measurement": "OS Evt/N", "setting": "[1]; P65 % POSITIVE CYTOPLASMIC SIGNAL: >90%, 2 Prior Lines of Therapy", "value": "19/52"},
      {"measurement": "OS Evt/N", "setting": "[1]; P65 INTENSITY CYTOPLASMIC SIGNAL: ≦1+, Intermediate FLIPI Score", "value": "1/17"},
      {"measurement": "OS Evt/N", "setting": "[1]; P65 INTENSITY CYTOPLASMIC SIGNAL: ≧2+, 2 Prior Lines of Therapy", "value": "19/55"},
      {"measurement": "OS Evt/N", "setting": "[1]; [12]", "value": "9/15"},
      {"measurement": "OS Median", "setting": "[1]; [12]", "value": 717},
      {"measurement": "OS Evt/N", "setting": "[1]; [13]", "value": "4/10"},
      {"measurement": "OS Median", "setting": "[1]; [13]", "value": 971},
      {"measurement": "OS Evt/N", "setting": "[1]; PSMB9/R60H: A/A, 3 Prior Lines of Therapy", "value": "1/6"},
      {"measurement": "Median OS (Vc-R vs R)", "setting": "[1]; SEX MALE + 20S % NUCLEAR STAINING 30-90, Selected", "value": 1263, "unit": "days"},
      {"measurement": "Median OS (Vc-R vs R)", "setting": "[1]; Selected: FLIPI High and P65 % POSITIVE CYTOPLASMIC SIGNAL >90%", "value": 1263, "unit": "days"},
      {"measurement": "overall response rate", "setting": "[2]", "value": 47.5, "unit": "%"}
    ]}
  ]
}
